Measurements taken from paper PMC4192545, “Suramin Inhibits Hsp104 ATPase and Disaggregase Activity” (PLoS ONE, 2014).
Counter-ions that a name gives are not always drawn. Like-named read-outs stand apart in the source and are kept apart here.

Legend:
[1] = biological target: T1, Hsp104 (Saccharomyces cerevisiae, UniProt P31539); assay: High-throughput Hsp104 ATPase plate assay (malachite green, 384-well); type: biochemical, yeast; settings: for inhibition at 10 µM: read-out: % Inhibition of Hsp104 ATP hydrolysis
T1 construct: made in house; host or cells: E. coli BL21-DE3 RIL
Experimental: ATPase activity was assessed by the release of inorganic phosphate determined using a malachite green phosphate detection kit (Innova Biosciences, Cambridge, United Kingdom). Microtiter plates (384-well) were purchased from PerkinElmer (Waltham, MA). Three libraries were screened: The NIH Clinical Collection (450 small molecules), the Spectrum Collection (2,000 compounds, MicroSource, Gaylordsville, CT) and the HitFinder Collection (14,400 compounds, Maybridge).
We adapted the inorganic phosphate colorimetric assay to fit a 384-well plate format. A Ź-factor between 0.8 and 1 was calculated for the assay. A 2X Hsp104 stock solution was dispensed into each well using a Biotek microflo (Biotek Instruments, Winooski, VT). Compounds were then transferred using a Janus 96/384 Modular Dispensing Tool (PerkinElmer). Finally, a 2X ATP solution was dispensed using the Biotek microflo. Final concentrations of Hsp104 (monomer) and ATP were 0.25 µM and 1 mM respectively. Seeking to avoid the discovery of competitive inhibitors, we designed our high-throughput screen to use a 100-fold excess of ATP with respect to the test compounds (10 µM each). Final buffer conditions were 20 mM HEPES-KOH pH 7.4, 20 mM NaCl and 10 mM MgCl2. The ATPase reaction was allowed to continue for 60 min, at which time the reaction was terminated by addition of the colorimetric reagent. Absorbance was measured at 635 nm on an EnVision Xcite Multilabel plate reader (PerkinElmer). Hits were tested in duplicate. […] Ten of these were subjected to a 6-point titration (40, 13.3, 4.44, 1.45, 0.49 and 0 µM) in the absence or presence of Triton X-100, BSA, or both Triton X-100 and BSA at the specified concentrations. Heat maps were created in Excel for Mac 2011 (Microsoft Corporation) using the Conditional Formatting feature (Color Scales).
We aimed to identify small molecules capable of inhibiting Hsp104. To do so, we employed high-throughput screening using Hsp104 ATPase activity as a proxy for function. To detect changes in Hsp104 ATPase activity, we used a colorimetric assay detecting free inorganic phosphate (Pi) based on the formation of a colored complex between Pi and a dye molecule under acidic conditions, [44]. Pi is produced from the Hsp104-driven hydrolysis of ATP. The colored complex concentration, a surrogate for Pi concentration and ATPase rate, is determined by measuring the absorbance of a sample at 635 nm. We used recombinant Hsp104 purified from E. coli. An Hsp104 mutant with mutations in both NBD1 and NBD2 Walker B sequence motifs (Hsp104^DWB, carrying ATPase ablating mutations E285Q: E687Q) was used as a negative control for ATPase activity. Hsp104^WT activity results in a high A635 (high ATPase), while Hsp104^DWB activity results in a low A635 (low ATPase). We optimized the Pi colorimetric assay to fit a 384-well plate format. We selected the Hsp104 concentration (0.25 µM) on the basis of previous experience in our laboratory. The ATP concentration was selected to be in a 100-fold excess of ATP with respect to the test compounds. […] We screened 16,850 compounds from the NIH Clinical Collection as well as the Spectrum and Maybridge compound libraries. […] For instance, hexachlorophene and tannic acid inhibit Hsp104 ATPase activity by ∼80%, while Merbromin and Sennoside a inhibit by ∼20% ( Table 1 ).

[2] = biological target: T2, Hsp104^WT (Saccharomyces cerevisiae, UniProt P31539); assay: Manual ATPase assay, Hsp104^WT; type: biochemical, yeast; settings: 60 min, ATP 1 mM
T2 construct: made in house; host or cells: E. coli BL21-DE3 RIL
Experimental: Wild-type or mutant Hsp104 (0.25 µM monomer) in ATPase buffer (20 mM HEPES-KOH pH 7.4, 20 mM NaCl and 10 mM MgCl2) was incubated for 60 or 10 min at 25°C in the presence of ATP (1 mM) as noted. ATPase activity was assessed by the release of inorganic phosphate determined by using a malachite green phosphate detection kit (Innova).

[3] = biological target: T1, Hsp104; assay: Luciferase disaggregation/reactivation assay, Hsp104 with ATP:ATPγS; type: biochemical, yeast; settings: for Normalized Luciferase Refolding Activity: 90 min 25°C, ATP:ATPγS 1:1, Figure 3A
Experimental: Luciferase reactivation was performed as described, [37]. To assemble aggregates, firefly luciferase (50 µM) in luciferase refolding buffer (LRB, 25 mM HEPES-KOH, 7.4, 150 mM KAOc, 10 mM MgAOc, 10 mM DTT) with 6 M urea was incubated at 30°C for 20 min. Luciferase was then rapidly diluted 100-fold into LRB, divided into 100 µL aliquots, snap frozen in liquid N2, and stored at −80°C. For reactivation assays, aggregated luciferase (50 nM) was incubated with Hsp104 (1 µM hexamer), plus 2.6 mM ATPγS, 2.6 mM ATP and an ATP regeneration system (1 mM creatine phosphate, 0.25 µM creatine kinase (Roche Applied Science)) for 90 minutes at 25°C. Luciferase assay system was purchased from Promega. Luciferase activity was assessed by luminescence measured on a Safire^2 microplate reader (Tecan, Männedorf, Switzerland). The half maximal inhibitory concentration (IC50) was calculating by fitting luciferase-refolding data at different Suramin concentrations with Prism (GraphPad Software, Inc., La Jolla, CA).

[4] = test system: Hsp104; settings: cited from earlier work
[5] = 10 µM compound, Hsp104 0.25 µM monomer, ATP 1 mM, 60 min, mean ±S.D. (n = 2)

T1 sequence (P31539 whole entry): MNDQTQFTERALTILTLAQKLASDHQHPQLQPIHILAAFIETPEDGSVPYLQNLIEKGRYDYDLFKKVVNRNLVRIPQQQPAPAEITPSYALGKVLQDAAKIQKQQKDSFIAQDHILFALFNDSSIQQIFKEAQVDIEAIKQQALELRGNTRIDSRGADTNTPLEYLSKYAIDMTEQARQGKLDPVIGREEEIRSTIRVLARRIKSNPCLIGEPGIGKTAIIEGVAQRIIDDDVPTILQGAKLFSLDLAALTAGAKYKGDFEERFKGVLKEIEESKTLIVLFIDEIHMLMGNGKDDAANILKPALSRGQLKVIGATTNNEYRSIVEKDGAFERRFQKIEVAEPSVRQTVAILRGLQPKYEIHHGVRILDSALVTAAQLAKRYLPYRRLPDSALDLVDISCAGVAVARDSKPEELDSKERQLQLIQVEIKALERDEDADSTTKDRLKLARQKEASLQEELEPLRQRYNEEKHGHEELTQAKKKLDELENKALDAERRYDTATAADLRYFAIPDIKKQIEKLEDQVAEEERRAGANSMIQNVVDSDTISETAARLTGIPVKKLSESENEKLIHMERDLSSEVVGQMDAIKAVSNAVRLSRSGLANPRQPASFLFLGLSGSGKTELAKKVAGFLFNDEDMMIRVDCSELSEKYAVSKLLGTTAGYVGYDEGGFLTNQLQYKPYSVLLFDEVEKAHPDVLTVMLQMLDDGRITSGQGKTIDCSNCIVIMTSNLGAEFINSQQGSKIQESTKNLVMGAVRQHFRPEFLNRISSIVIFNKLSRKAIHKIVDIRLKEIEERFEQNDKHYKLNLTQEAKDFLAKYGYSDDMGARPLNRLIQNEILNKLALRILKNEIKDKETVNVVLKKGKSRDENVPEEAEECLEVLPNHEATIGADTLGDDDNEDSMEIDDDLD
T2 sequence (P31539 whole entry): as above

Row | Compound | inhibition at 10 µM [1, 5] | % Inhibition of Hsp104 ATP hydrolysis [1, 5] | also measured
1 | C=C1c2cccc(O)c2C(=O)C2=C(O)[C@]3(O)C(=O)C(C(N)=O)=C(O)[C@@H](N(C)C)[C@@H]3[C@@H](O)[C@H]12 [Methacycline hydrochloride] | 33.3 ± 2.12% |  | 
2 | O=C(Oc1cc(O)cc2c1C[C@@H](OC(=O)c1cc(O)c(O)c(O)c1)[C@@H](c1cc(O)c(O)c(O)c1)O2)c1cc(O)c(O)c(O)c1 [Epigallocatechin 3,5-digallate] | 21.9 ± 2.53% |  | 
3 | O=C(O[C@@H]1Cc2c(O)cc(O)cc2O[C@@H]1c1cc(O)c(=O)c2c(O)c(O)cc([C@H]3Oc4cc(O)cc(O)c4C[C@H]3O)c2c1)c1cc(O)c(O)c(O)c1 [Theaflavin monogallates] | 57.2 ± 7.19% |  | 
4 | Cl.N=C(N)N [GdmCl, guanidinium hydrochloride] |  |  | Effect on Hsp104 ATPase activity, manual assay ([2]; 30 mM (highest concentration tested)): only very mildly inhibited Hsp104 ATPase activity; Concentration needed to elicit the same level of inhibition as 100 µM Suramin (complete ablation of luciferase refolding) ([3]; ATP:ATPγS 1:1): 5 mM; Normalized Luciferase Refolding Activity ([3]; GdmCl 1 mM): 0.07; Normalized Luciferase Refolding Activity ([3]; GdmCl 5 mM): 0.01; Normalized Luciferase Refolding Activity ([3]; GdmCl 10 mM): 0.01; Normalized Luciferase Refolding Activity ([3]; GdmCl 20 mM): 0.01; Effect on luciferase reactivation activity of Hsp104 ([3]; all concentrations of GdmCl tested (1-20 mM)): very strongly inhibited the luciferase reactivation activity of Hsp104; Hsp104 ATPase activity remaining ([4]; GdmCl 100 mM): large fraction of Hsp104 ATPase activity remained; Effective concentration for inhibition of Hsp104 activity [4]: effective at millimolar concentrations
5 | O=C1C=C2CC3(O)COc4c(ccc(O)c4O)C3=C2C=C1O (centres unmarked) [Hematein] |  |  | inhibition at 10 µM [1]: 45.7 ± 5.95%
6 | Chlorophyllide Cu Complex Na Salt |  | 33.79±2.18% | 
7 | Oc1c(Cl)cc(Cl)c(Cl)c1Cc1c(O)c(Cl)cc(Cl)c1Cl [Hexachlorophene] | ~80% | 80.21±1.00% | 
8 | Sucralfate Sodium |  | 25.67±2.59% | 
9 | Tannic acid |  | 79.79±0.29% | % Inhibition of Hsp104 ATP hydrolysis ([1]; 10 µM compound, Hsp104 0.25 µM monomer, ATP 1 mM, 60 min, mean ±S.D. (n = 2), listed as tannic acid): ~80%
10 | O=C([O-])c1ccccc1-c1c2cc(Br)c(=O)cc-2oc2[c]([Hg+])c([O-])c(Br)cc12.[Na+].[Na+].[OH-] [Merbromin] |  | 21.17±3.54% | 
11 | N.N.[Cl][Pt][Cl] [Cisplatin, cis-diamminedichloroplatinum (II)] |  | 76.58±1.06% | Inhibition of Hsp104 ATPase activity in the presence of both Triton X-100 and BSA ([1]; titration 40-0.49 µM, 60 min, Triton X-100 and BSA, heat map Figure 1A): most significantly inhibit Hsp104 ATPase activity; Effect on Hsp104 ATPase activity (Pi produced), manual assay ([2]; varying concentrations, Figure 2A): unable to replicate the inhibitory effect of Cisplatin outside of the 384-well format
12 | N.N.O=C([O-])C1(C(=O)[O-])CCC1.[Pt+2] [Carboplatin] |  | 73.75±1.41% | 
13 | Cc1cc2c(C(C)C)c(O)c(O)c(C=O)c2c(O)c1-c1c(C)cc2c(C(C)C)c(O)c(O)c(C=O)c2c1O [Gossypol] |  |  | inhibition at 10 µM [1]: 42.3 ± 4.83%
14 | O=C(O)c1cc(O)c2c(c1)[C@H]([C@H]1c3cc(C(=O)O)cc(O)c3C(=O)c3c(O[C@@H]4O[C@H](CO)[C@@H](O)[C@H](O)[C@H]4O)cccc31)c1cccc(O[C@@H]3O[C@H](CO)[C@@H](O)[C@H](O)[C@H]3O)c1C2=O [Sennoside a] | ~20% | 19.92±7.07% | 
15 | O=C(O)C1=CC(=C(c2ccc(O)c(C(=O)O)c2)c2ccc(O)c(C(=O)O)c2)C=CC1=O [Aurin tricarboxylic acid] | 24.2 ± 1.41% |  | 
16 | CC(=O)O.Cc1cc2c(C(C)C)c(O)c(O)c(C=O)c2c(O)c1-c1c(C)cc2c(C(C)C)c(O)c(O)c(C=O)c2c1O [Gossypol-acetic acid complex] |  | 47.92±1.30% | 
